Source: US6348445B1, “Biologically active peptides with reduced toxicity in animals and a method for preparing same” (priority 1992, dated 2002)
In brackets after ≈: the same amount, converted by molar mass. Where two headings read alike, the source gives them in different places. Where a SMILES comes first, the peptide text is derived from it. Where no end group is shown, it is not given here. [ ]: non-standard residue; d: D form. The star is where a group is joined. Octanoyl = CCCCCCCC(=O)*; Orn = NCCC[C@H](N)C(=O)O

What was measured:
[1] = system: S.aureus strain ATCC 25923; assay: Minimal Inhibitory Concentration, microtiter broth dilution; format: cell-based; details: Mueller Hinton broth, 16-20 hours at 37° C.
From the text: Table I, which follows, indicates the Minimal Inhibitory Concentration (MIC) in […] of various peptides against S.aureus strain ATCC 25923(S), P. aeruginosa strain ATCC 27853(P), E. coli ATCC strain 25922(E), and C. 4albicans (CA). […] The peptides are unsubstituted at the N-terminal; substituted with an acetyl group at the N-terminal, as indicated by Ac-; substituted with an octanoyl group at the N-terminal, as indicated by Oct-; substituted with spinogosine, as indicated by Sph-; substituted with a succinyl group, as indicated by Suc-; substituted with a hexanoyl group, as indicated by Hex-; substituted with a heptanoyl group, as indicated by Hep-; substituted with a valeryl group, as indicated by Val-; substituted with a myristryl group, as indicated by Myr-; or substituted with an ibuprofyl group, as indicated by Ibu-;
(§1) The procedure for the anti-bacterial assay is based upon the guidelines of the National Committee for Clinical Laboratory Standards, Document M7-T2, Volume 8, No. 8, 1988, which document is entirely incorporated herein by reference.
(§2) Stock solutions of peptides, with and without the appropriate substitutions, were prepared at a concentration of 512 μg/ml in sterile deionized distilled water and stored at −70° C.
(§3) The stock peptide solution was diluted in serial dilutions (1:2) down the wells of a microtiter plate so that the final concentrations of peptides in the wells were 0.25, 0.50, 1, 2, 4, 8, 16, 32, 64, 128 and 256 μg/ml. 1-5×10^5 CFUs/ml of either S. aureus ATCC 25923, E. coli ATCC 25922, P. aeruginosa ATCC 27853, or C. albicans, were added to the wells in full strength Mueller Hinton broth (BBL 11443) from a mid-log culture. The inoculum was standardized spectrophotometrically at 600 nm and was verified by colony counts. The plates were incubated for 16-20 hours at 37° C., and the minimal inhibitory concentration (MIC) for each peptide was determined. Minimal inhibitory concentration is defined as the lowest concentration of peptide which produces a clear well in the microtiter plate. The minimal inhibitory concentration of each of the peptides with and/or without the appropriate substitutions is given in Table I below.

[2] = system: E. coli ATCC strain 25922; assay: as above; format: cell-based
Method in brief: (§4)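 Peptides serially diluted 1:2 to final 0.25–256 μg/ml in Mueller Hinton broth, inoculated with 1-5×10^5 CFUs/ml from mid-log culture. Incubated 16-20 hours at 37° C. MIC = lowest peptide concentration giving a clear well.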

[3] = maximal tolerated dose, single intravenous administration of Compound 1324; format: in vivo, mice; details: mouse, in vivo; single intravenous bolus, CD-1 mice; read-out: MTD i.v. (maximum tolerated dose, non-lethal)
Experimental: Mice received single intravenous administrations of Compound 1324, the methane sulfonate analogue of Compound 843, and were monitored for survival for at least 4 days. There were no deaths at a dose of less than or equal to 180 mg/kg.
To determine the maximal tolerated dose (MTD) and estimate the lethal dose 50% (LD50) of Compound 1324 sodium when administered intravenously in a single-bolus in mice.
Animals: On arrival and study initiation, three groups Thirty-seven male CD-1 mice (Charles River Lab)had average body weights of 39, 28 and 28 gm, respectively.
Solution Prep: A 120 mg/ml of active Compound 1324 (active moiety corrected for) was made in saline. All concentrations from 5 mg/ml to 80 mg/ml were dilutions of the 120 mg/ml solution with saline. The highest concentration used in the intravenous administration was 20 mg/ml.
Mice were randomly assigned to one of ten groups (4 mice per group, except the highest dose group which only had one mouse). Mice were administered intravenously 10 ml/kg of either 0 (saline), 5, 6, 7, 8, 14, 16, 18, or 20 mg/ml solution for doses of […]. One mouse received 14.1 ml/kg of a 20 mg/ml solution for a dose of 282 mg/kg. Mice were monitored for survival for at least four days post-administration.

C. albicans = format: cell-based; details: C. albicans; Table I
Method in brief: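 Peptides serially diluted 1:2 to final 0.25–256 μg/ml; inoculum 1-5×10^5 CFU/ml from mid-log culture in full-strength Mueller Hinton broth. Incubated 16-20 h at 37° C. MIC taken as lowest peptide concentration giving a clear well.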

E. coli strain 21915-1 = assay: survival of mice inoculated intraperitoneally with live E. coli; format: in vivo; details: i.v. at 1 and 5 hours post-inoculation, 10 mice
Experimental: CD-1 male mice (average body weight, 22.8g) were inoculated with live E. coli strain 21915-1 (2.3×10^5 CFU mouse) by injection intraperitoneally. Oct-(SEQ ID NO: 143)—NH2 then was injected intravenously via the tail vein at 1 and 5 hours post-inoculation. Control mice were inoculated and treated with 0.9% saline. Each different treatment group had 10 mice per group. All control mice died.

C. albicans ATCC 90028 = format: cell-based; details: Table IV
Experimental: as §1, §2, §3
(§5) The in vitro anti-microbial activities of the methane sulfonate derivatives were determined according to the methods described in Examples 1 and 2. The activities against ATCC strains of S. aureus, E. coli, P. aeruginosa, and C. albicans, and the hemolysis of red blood cells were compared to the parent compound (Table IV). The activities for Compound 843 (Oct-SEQ ID NO:143) methane sulfonate against clinical strains of P. aeruginosa isolated from cystic fibrosis patients were compared to the parent compound (Table V). The activity for Compound 469 (Oct-SEQ ID NO:27) methane sulfonate against P. gingivalis was compared to the parent compound (Table VI).

S. aureus ATCC 29213 = format: cell-based
[4] = system: clinical strains of P. aeruginosa isolated from cystic fibrosis patients; assay: MIC against clinical isolates of P. aeruginosa; format: cell-based, Pseudomonas aeruginosa; details: clinical isolate
Experimental: as §1, §2, §3, §5

[5] = system: lipopolysaccharide from E. coli serotype 0111:B4; assay: survival of mice after lipopolysaccharide and galactosamine; format: in vivo
Experimental: Oct-(SEQ ID NO: 143)—NH2 was injected intravenously into male C57BL/6J mice (average body weight 20.1 g) approximately two minutes prior to intraperitoneal injection of a solution of lipopolysaccharide (either 0.1 μg or 0.5 μg/mouse) from E. coli serotype 0111:B4 and galactosamine (8 mg/mouse). […] When these doses were administered prior to the administration of 0.1 μg lipopolysaccharide/mouse, the results were 40%, 90%, 100%, 100%, and 100% survival at five days post-lipopolysaccharide administration, respectively.

[6] = system: P. aeruginosa strain ATCC 27853; format: cell-based
Method in brief: as §4

red blood cells = assay: hemolysis of red blood cells; format: cell-based
Experimental: as §5

[7] = system: MDA-435 human breast carcinoma cells; format: cell-based; details: 24 h
Experimental: (§6) Human lung carcinoma cells, A-549 (ATCC), and human breast carcinoma cells, MDA-435 (from Sandoz), were grown in Ham's F12K medium (GIBCO-BRL) supplemented with […] fetal bovine serum. Human chronic myelogenous leukemia cells, K-562 (ATCC), were maintained in RPMI 1640 medium (GIBCO-BRL) supplemented with 10% fetal bovine serum. Human melanoma cell line, WM 1617 (from the Wistar Institute), was maintained in 2% Tumor media.
(§7) Cytotoxicity assays were performed on the cell lines described above using CytoLite (Packard Instrument Company) following the manufacture's instruction. Briefly, 2×10^4cells/well were seeded into black, 96-well ViewPlates (Packard Instrument Company) in 100 μl/well growth medium. Ser. dilutions of Magainin peptides were then added into the cells and the plates incubated for 24 hours in a humidified 5% CO2 atmosphere at 37° C. Following incubation, 25 μl/well of CytoLite activator solution was added followed by 125 μl/well of amplifier solution. Luminescence was measured on TopCount Microplate Scintillation and Luminescence counter (Packard Instrument Company) using a 1 second count time in SPC (single photon counting) mode at 25 ° C. All assays were performed in triplicate. The peptides tested in this assay were MSI-78(SEQ ID NO: 154 —NH2), MSI-1858(SEQ ID NO: 154 —NH2 Methane Sulfonate), MSI-344(SEQ ID NO: 154 —OH) and MSI-1857(SEQ ID NO: 154 —OH Methane Sulfonate). The results of these assays are shown in FIGS. 2-9 with the corresponding IC50 values in Table VIII. In all cases the activity of the methane sulfonated peptide was as good or better than the parent peptide as indicated by both the survival curves and the IC50 values.

[8] = system: WM 1617 human melanoma cells; format: cell-based; details: 24 h
Experimental: as §6, §7

[9] = system: K-562 human chronic myelogenous leukemia cells; format: cell-based; details: 24 h
Experimental: as §6, §7

[10] = system: A-549 human lung carcinoma cells; format: cell-based; details: 24 h
Experimental: as §6, §7

CCCCCCCC(=O)N[C@@H](CCCN)C(=O)N[C@@H](CCCN)C(=O)N[C@@H](CC(C)C)C(=O)N[C@@H](CC(C)C)C(=O)N[C@@H](CCCN)C(=O)N[C@@H](CCCN)C(=O)N[C@@H](CC(C)C)C(=O)N[C@@H](CCCN)C(=O)N[C@@H](CCCN)C(=O)N[C@@H](CC(C)C)C(N)=O [Oct-(SEQ ID NO: 143)-NH2] (Octanoyl-[Orn][Orn]LL[Orn][Orn]L[Orn][Orn]L-NH2)
Minimal Inhibitory Concentration S [1]: 16 µg/mL | Minimal Inhibitory Concentration E ([2]; E. coli ATCC strain 25922, Table I): 16 µg/mL | MIC E. coli ATCC 25922 ([2]; Table IV): 4 µg/mL (≈ 3.12 µM) | MTD [3]: 20 mg/kg | Minimal Inhibitory Concentration CA (C. albicans): 16 µg/mL | survival at six days post-inoculation (E. coli strain 21915-1; 1 mg/kg in toto): 20% | survival at six days post-inoculation (E. coli strain 21915-1; 5 mg/kg in toto): 40% | survival at six days post-inoculation (E. coli strain 21915-1; 10 mg/kg in toto): 90% | survival at six days post-inoculation (E. coli strain 21915-1; 20 mg/kg in toto): 90% | MIC C. albicans ATCC 90028 (C. albicans ATCC 90028): 64 µg/mL (≈ 50 µM) | MIC S. aureus ATCC 29213 (S. aureus ATCC 29213; Table IV): 16 µg/mL (≈ 12.5 µM) | MIC Pseudomonas aeruginosa LS-31 [4]: 16 µg/mL (≈ 12.5 µM) | MIC Pseudomonas aeruginosa LS-40 [4]: 4 µg/mL (≈ 3.12 µM) | MIC Pseudomonas aeruginosa LS-43 [4]: 2 µg/mL (≈ 1.56 µM) | survival at five days post-lipopolysaccharide administration ([5]; 5 mg/kg i.v. (by order of the list), 0.1 μg lipopolysaccharide/mouse): 90% | survival at five days post-lipopolysaccharide administration ([5]; 5 mg/kg i.v., 0.5 μg lipopolysaccharide/mouse): 0% | survival at five days post-lipopolysaccharide administration ([5]; 7.5 mg/kg i.v. (by order of the list), 0.1 μg lipopolysaccharide/mouse): 100% | survival at five days post-lipopolysaccharide administration ([5]; 7.5 mg/kg i.v., 0.5 μg lipopolysaccharide/mouse): 30% | survival at five days post-lipopolysaccharide administration ([5]; 10 mg/kg i.v. (by order of the list), 0.1 μg lipopolysaccharide/mouse): 100% | survival at five days post-lipopolysaccharide administration ([5]; 10 mg/kg i.v., 0.5 μg lipopolysaccharide/mouse): 0% | survival at five days post-lipopolysaccharide administration ([5]; 12.5 mg/kg i.v. (by order of the list), 0.1 μg lipopolysaccharide/mouse): 100% | survival at five days post-lipopolysaccharide administration ([5]; 12.5 mg/kg i.v., 0.5 μg lipopolysaccharide/mouse): 50% | survival at five days post-lipopolysaccharide administration ([5]; 15 mg/kg i.v., 0.5 μg lipopolysaccharide/mouse): 60% | Minimal Inhibitory Concentration P ([6]; P. aeruginosa strain ATCC 27853, Table I): 2 µg/mL | MIC P. aeruginosa ATCC 27853 ([6]; Table IV): 2 µg/mL (≈ 1.56 µM) | MIC Pseudomonas aeruginosa ATCC 27853 ([6]; Table V): 4 µg/mL (≈ 3.12 µM) | % Hemolysis (500 μg/ml) (red blood cells): 25%

GIGKFLKKAKKFGKAFVKILKK [MSI-78]
MIC E. coli ATCC 25922 ([2]; ATCC strain 25922): 32 µg/mL | MIC S. aureus ATCC 29213 (S. aureus ATCC 29213; ATCC 29213): 16 µg/mL | IC50 [7]: 4 µM | IC50 [8]: 3 µM | IC50 [9]: 9 µM | IC50 [10]: 3 µM | MIC P. aeruginosa ATCC 27853 ([6]; ATCC 27853): 16 to 32 µg/mL
